This note sets out measurements from ChEMBL document CHEMBL1128904, “Synthesis and biological activity of 1-alkylcarbonylmethyl analogues of YM022” (Bioorg Med Chem Lett, 1996).

Active and inactive are the calls of the source. The rule behind the calls is not given here.

The target in experiment [1] is T1, Gastrin/cholecystokinin type B receptor (Rattus norvegicus, UniProt P30553).
T1 sequence (P30553 whole entry): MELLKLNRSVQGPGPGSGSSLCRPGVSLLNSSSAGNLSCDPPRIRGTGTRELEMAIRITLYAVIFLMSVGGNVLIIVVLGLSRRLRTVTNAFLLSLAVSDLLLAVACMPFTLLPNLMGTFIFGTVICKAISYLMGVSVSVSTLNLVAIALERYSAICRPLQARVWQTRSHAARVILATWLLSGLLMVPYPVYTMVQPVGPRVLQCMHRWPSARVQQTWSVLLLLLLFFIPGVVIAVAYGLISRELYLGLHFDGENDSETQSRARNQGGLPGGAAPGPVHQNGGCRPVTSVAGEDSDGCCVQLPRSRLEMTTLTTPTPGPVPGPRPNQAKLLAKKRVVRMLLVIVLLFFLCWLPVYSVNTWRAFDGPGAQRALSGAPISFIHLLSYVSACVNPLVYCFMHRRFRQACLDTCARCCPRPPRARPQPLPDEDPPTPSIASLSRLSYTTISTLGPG
The experiment in a line: Ability to displace [125I]CCK-8 from gastrin/Cholecystokinin type B receptor from rat brain. The class given is tissue-based.

Experiment [2] has as its system Rattus norvegicus. The experiment in a line: Compound was evaluated for in vivo inhibition of pentagastrin induced gastric acid secretion in rats after id administration at dose of 0.3 umol/kg; Not determined. The class given is functional, organism-based. The note with it: Stomach.
Experiment [3] has as its system Rattus norvegicus. The experiment in a line: Compound was evaluated for in vivo inhibition of pentagastrin induced gastric acid secretion in rats by 50% after iv administration. The class given is functional. The note with it: Stomach.
Experiment [4] deals with Rattus norvegicus. The experiment in a line: Compound was evaluated for in vivo inhibition of pentagastrin induced gastric acid secretion in rats after iv administration at dose of 0.03 umol/kg. The class given is functional. The note with it: Stomach.
Experiment [5] concerns Rattus norvegicus. The experiment in a line: Compound was evaluated for in vivo inhibition of pentagastrin induced gastric acid secretion in rats after id administration at dose of 0.3 umol/kg. The class given is functional. The note with it: Stomach.
The target of experiment [6] is T2, Cholecystokinin receptor type A (Rattus norvegicus, UniProt P30551).
T2 sequence (P30551 whole entry): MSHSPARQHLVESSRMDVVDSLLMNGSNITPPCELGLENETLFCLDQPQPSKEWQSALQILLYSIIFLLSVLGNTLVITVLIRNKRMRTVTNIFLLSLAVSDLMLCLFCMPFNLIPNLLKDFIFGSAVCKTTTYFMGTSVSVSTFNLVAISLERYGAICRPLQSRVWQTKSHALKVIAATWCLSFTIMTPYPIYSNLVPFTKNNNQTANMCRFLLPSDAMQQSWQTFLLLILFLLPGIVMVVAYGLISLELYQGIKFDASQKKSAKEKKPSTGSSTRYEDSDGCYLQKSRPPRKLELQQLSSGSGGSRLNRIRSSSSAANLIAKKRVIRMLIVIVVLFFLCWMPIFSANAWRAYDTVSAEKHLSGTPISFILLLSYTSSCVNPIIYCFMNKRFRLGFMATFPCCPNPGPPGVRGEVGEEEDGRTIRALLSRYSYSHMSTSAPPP
The experiment in a line: Compound was evaluated for its ability to displace [3H]L-364718 from Cholecystokinin type A receptor from rat pancreas.

Experiment [7] deals with Rattus norvegicus. The experiment in a line: Compound was evaluated for inhibition of pentagastrin induced gastric acid secretion in rats after id administration at dose of 0.3 umol/kg. Conditions: Stomach. The class given is functional.
For experiment [8], the system named is Rattus norvegicus. The experiment in a line: Compound was evaluated for inhibition of pentagastrin induced gastric acid secretion in rats by 50% after iv administration. The class given is functional. Conditions: Stomach.
Experiment [9] deals with Rattus norvegicus. The experiment in a line: Compound was evaluated for in vivo inhibition of pentagastrin induced gastric acid secretion in rats after iv administration at dose of 0.1 umol/kg. Conditions: Stomach. The class given is functional.

A word on the IC50: it is the concentration that inhibits the measured activity by half. In experiment [1], `Cc1cccc(NC(=O)NC2N=C(c3ccccc3)c3ccccc3N(CC(=O)CC3CCCCC3)C2=O)c1` (configuration not stated) yielded an IC50 of 0.28 nM. For orientation: ED50 means the midpoint of the dose-response relation. Read a high ED50 as a need for a large dose. For orientation: inhibition in vivo means the relative decrease from the control value, in per cent. Low readings indicate a weak effect, high ones a strong effect. In the case of `Cc1cccc(NC(=O)N[C@@H]2N=C(c3ccccc3)c3ccccc3N(C)C2=O)c1` [L-365260], in [2], the inhibition result was “inactive”. In experiment [3], the ED50 is 4.23 µmol/kg. For the same molecule, the inhibition in vivo at 0.03 µmol/kg in experiment [4] amounted to 0%. For the molecule `Cc1cccc(NC(=O)NC2N=C(c3ccccc3)c3ccccc3N(CC(=O)C(C)(C)C)C2=O)c1` (configuration not stated), in [5], the inhibition in vivo at 0.3 µmol/kg was 80%. The IC50 in [1] amounted to 0.52 nM. The ED50 in experiment [3] amounted to 0.0057 µmol/kg. In [4], the inhibition in vivo at 0.03 µmol/kg amounted to 76.7%.

In turn, `Cc1cccc(NC(=O)NC2N=C(c3ccccc3)c3ccccc3N(CC(=O)C3(C)CCCCC3)C2=O)c1` (configuration not stated) displayed an IC50 in experiment [1] of 0.38 nM.

Molecule `Cc1cccc(NC(=O)N[C@@H]2N=C(c3ccccc3)c3ccccc3N(CC(=O)c3ccccc3C)C2=O)c1` had an inhibition in vivo at 0.3 µmol/kg in experiment [5] of 16%. In addition, the IC50 in [1] was determined as 0.11 nM; in [6] it was 146 nM. The 50% effect level in [3] (ED50) was put at a dose of 0.0078 µmol/kg. This molecule also registered an inhibition in vivo at 0.03 µmol/kg in experiment [4] of 80%. `Cc1cccc(NC(=O)NC2N=C(c3ccccc3)c3ccccc3N(CC(=O)C3(C)CCCC3)C2=O)c1` (configuration not stated): in [1], the IC50 is 0.1 nM.

For the molecule `Cc1cccc(NC(=O)NC2N=C(c3ccccc3)c3ccccc3N(CC(=O)C(C)C)C2=O)c1` (configuration not stated), the half-inhibitory concentration (IC50) in experiment [1] was 2.1 nM.

With `Cc1cccc(NC(=O)NC2N=C(c3ccccc3)c3ccccc3N(CC(=O)C3(C)CC3)C2=O)c1` (configuration not stated), the IC50 in experiment [1] stood at 0.41 nM. Compared with the last molecule, the IC50 is about 5.1-fold lower. Still for that read-out and setting: the same measure for `CCC(C)(C)C(=O)CN1C(=O)C(NC(=O)Nc2cccc(C)c2)N=C(c2ccccc2)c2ccccc21` (configuration not stated): 0.57 nM; for `CCC(CC)C(=O)CN1C(=O)C(NC(=O)Nc2cccc(C)c2)N=C(c2ccccc2)c2ccccc21` (configuration not stated): 1.9 nM.

`Cc1cccc(NC(=O)NC2N=C(c3ccccc3)c3ccccc3N(CC(=O)C3CCCC3)C2=O)c1` (configuration not stated) yielded an inhibition in vivo at 0.3 µmol/kg in [7] of 36%. For the same molecule, in experiment [1], the IC50 was 0.23 nM. Besides, in experiment [4], the inhibition in vivo at 0.03 µmol/kg is 65.2%. The same molecule showed an ED50 in experiment [8] of 0.0155 µmol/kg. `Cc1cccc(NC(=O)NC2N=C(c3ccccc3)c3ccccc3N(CC(=O)C3CCC3)C2=O)c1` (configuration not stated) gave an IC50 in [1] of 2.37 nM.

Molecule `Cc1cccc(NC(=O)NC2N=C(c3ccccc3)c3ccccc3N(CC(=O)C(C)(C)C3CCCCC3)C2=O)c1` (configuration not stated) returned an IC50 in experiment [1] of 0.86 nM. This IC50 lies about 2.8-fold lower than the previous one. In experiment [1], `Cc1cccc(NC(=O)NC2N=C(c3ccccc3)c3ccccc3N(CC(=O)C3CCCCC3)C2=O)c1` (configuration not stated) yielded an IC50 of 0.4 nM. The same molecule yielded an inhibition in vivo at 0.1 µmol/kg in [9] of 67%. Regarding `Cc1cccc(NC(=O)N[C@@H]2N=C(c3ccccc3)c3ccccc3N(CC(=O)C3CCCC3)C2=O)c1`, the inhibition in vivo at 0.3 µmol/kg in experiment [5] worked out at 31%. The molecule further registered an inhibition in vivo at 0.03 µmol/kg in experiment [4] of 79.9%.

For `Cc1cccc(NC(=O)N[C@H]2N=C(c3ccccc3)c3ccccc3N(CC(=O)C3CCCC3)C2=O)c1`, in experiment [1], the IC50 was 6.1 nM.

Molecule `Cc1cccc(NC(=O)NC2N=C(c3ccccc3)c3ccccc3N(CC(=O)C3CCCCCC3)C2=O)c1` (configuration not stated) showed an IC50 in [1] of 2 nM. Moreover, the inhibition in vivo at 0.03 µmol/kg in experiment [4] was 53.5%.
